Values of other authors as cited in patent publication US20190160058A1, “METHODS OF TREATMENT WITH SELECTIVE CB2 RECEPTOR AGONISTS” (Arena Pharmaceuticals, Inc., priority 2016, published 2019).

Legend:
[1] = tested on: ovariectomy-induced bone loss; settings: in vivo; cited from earlier work
[2] = tested on: EAE mouse model; settings: in vivo; cited from earlier work
[3] = tested on: bone marrow-derived osteoblasts/stromal cells; settings: in vitro; cited from earlier work
[4] = tested on: guinea pig vagus nerve preparations; settings: in vitro; cited from earlier work
[5] = tested on: conscious guinea-pigs; settings: given prior to exposure to citric acid; cited from earlier work
[6] = tested on: human vagus nerve preparations; settings: in vitro; cited from earlier work
[7] = tested on: LPS-induced bladder inflammation; settings: in vivo; cited from earlier work
[8] = tested on: RPE cells; settings: cited from earlier work
[9] = tested on: mice; settings: cited from earlier work
[10] = tested on: bovine nasal cartilage explants; settings: in vitro; cited from earlier work
[11] = tested on: guinea pigs; settings: cited from earlier work

CCCCCCC(C)(C)c1cc(OC)c([C@@H]2C=C(CO)[C@@H]3C[C@H]2C3(C)C)c(OC)c1 [HU-308]
bone loss and cortical thickness [1]: attenuates ovariectomy-induced bone loss and stimulates cortical thickness | cell recruitment, proliferation and axonal loss [2]: markedly reduces the recruitment of immature myeloid cells and T cells, microglial and infiltrating myeloid cell proliferation, and axonal loss | osteoblast numbers and activity, osteoclast precursor proliferation [3]: enhances endocortical osteoblast numbers and activity while simultaneously inhibiting proliferation of osteoclast precursors

CCCC(C)(C)c1ccc2c(c1)OC(C)(C)[C@@H]1CC=C(C)C[C@@H]21 [JWH133]
capsaicin-, PGE2-, and hypertonic saline-induced depolarization [4]: reduces capsaicin-, PGE2-, and hypertonic saline-induced depolarization | cough [5]: significantly reduces cough | capsaicin-, PGE2-, and hypertonic saline-induced depolarization [6]: reduces capsaicin-, PGE2-, and hypertonic saline-induced depolarization

CCCn1c(C)c(C(=O)c2cccc3ccccc23)c2ccccc21 [JWHO15]
LPS-induced bladder inflammation [7]: antagonize LPS-induced bladder inflammation | protection from oxidative damage [8]: provides comparable protection

Cc1c(C(=O)c2cccc3ccccc23)c2cccc3c2n1[C@H](CN1CCOCC1)CO3 [WIN 55212-2]
leukocyte rolling and adhesion in the brain [2]: significantly inhibits leukocyte rolling and adhesion in the brain | number of capsaicin-induced coughs [9]: dose-dependent inhibition | IL-1alpha-stimulated proteoglycan and collagen degradation [10]: significantly inhibit

CCCCC/C=C\C/C=C\C/C=C\C/C=C\CCCC(=O)NCCO [anandamide]
number of capsaicin-induced coughs [11]: dose-dependent inhibition
